Data taken from ChEMBL document CHEMBL2069188, “Structural requirements for the antitubercular quaternized triflupromazine pharmacophore” (Bioorg Med Chem Lett, 2012).
Converted amounts (≈) assume the structure as drawn.

Experiments:
[1] = system: Mycobacterium tuberculosis; test: Antitubercular activity against Mycobacterium tuberculosis H37Rv by microplate alamar blue assay; assay type: functional
[2] = system: Vero; test: Cytotoxicity against african green monkey Vero cells […] after 3 days; assay type: cell-based; conditions: Chlorocebus sabaeus, 72 h
[3] = Selectivity index, ratio of IC50 for african green monkey Vero cells to MIC for Mycobacterium tuberculosis H37Rv; assay type: functional

C[N+](C)(CCCN1c2ccccc2Sc2ccc(C(F)(F)F)cc21)Cc1ccc(Br)cc1.[Br-]
MIC90 [1]: 6 µM
IC50 [2]: > 128 µM
Selectivity Index [3]: >21

C=CC[N+](C)(C)CCCN1c2ccccc2Sc2ccc(C(F)(F)F)cc21
MIC90 [1]: > 128 µM

C#CC[N+](C)(C)CCCN1c2ccccc2Sc2ccccc21
MIC90 [1]: > 128 µM

C[N+](C)(CCCN1c2ccccc2Sc2ccc(C(F)(F)F)cc21)Cc1ccc(F)cc1.[Cl-]
MIC90 [1]: 11.9 µM
IC50 [2]: > 128 µM
Selectivity Index [3]: >11

FC(F)(F)c1ccc2c(c1)N(Cc1cn(Cc3ccc(Cl)cc3)nn1)c1ccccc1S2
MIC90 [1]: > 100 µM
IC50 [2]: > 128 µM

CO[C@H]1/C=C/O[C@@]2(C)Oc3c(C)c(O)c4c(O)c(c(/C=N/N5CCN(C)CC5)c(O)c4c3C2=O)NC(=O)/C(C)=C\C=C\[C@H](C)[C@H](O)[C@@H](C)[C@@H](O)[C@@H](C)[C@H](OC(C)=O)[C@@H]1C [RIFAMPIN]
MIC90 [1]: 0.09 µM (≈ 0.0741 µg/mL)
IC50 [2]: > 100 µM
Selectivity Index [3]: >909

C[N+](C)(CC#N)CCCN1c2ccccc2Sc2ccc(C(F)(F)F)cc21
MIC90 [1]: > 128 µM

C[N+](C)(CCCN1c2ccccc2Sc2ccc(C(F)(F)F)cc21)Cc1ccc(Cl)cc1.[Cl-]
MIC90 [1]: 9 µM
IC50 [2]: > 128 µM
Selectivity Index [3]: >14

CCCC[N+](C)(C)CCCN1c2ccccc2Sc2ccc(C(F)(F)F)cc21
MIC90 [1]: 53.2 µM

C#CC[N+](C)(C)CCCN1c2ccccc2Sc2ccc(C(F)(F)F)cc21
MIC90 [1]: 121 µM

C=CC[N+](C)(C)CCCN1c2ccccc2Sc2ccccc21
MIC90 [1]: > 128 µM

C[N+](C)(CCCN1c2ccccc2Sc2ccc(C(F)(F)F)cc21)Cc1ccc(I)cc1.[Br-]
MIC90 [1]: 5.9 µM
IC50 [2]: 92.7 µM
Selectivity Index [3]: >16
